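Cells were grown in 96-well plates and exposed to each compound for 48 hours at five concentrations; endpoints were interpolated linearly between bracketing concentrations, or set to the highest concentration if not reached. GI50: concentration for 50% inhibition of growth. The concentration for full growth arrest is given as TGI.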

Test systems include UACC-257 melanoma; SK-MEL-28 melanoma; COLO 205 colon; A549 NSCLC; HT29 colon; NCI-H460 lung; SR leukemia; MALME-3M melanoma; OVCAR-4 ovarian; OVCAR-3 ovarian; KM12 colon.
Assay in all cases: DTP human tumour cell line panel, 48 h

Consider `CCn1c(SCc2nnc(Nc3ccccc3)s2)nc2ccccc2c1=O`, for which the TGI in the test on UACC-257 melanoma was determined as 51.9 µM; in the test on SK-MEL-28 melanoma, 60.8 µM; in the test on COLO 205 colon it was 43.2 µM; with A549 NSCLC, 19.3 µM; with HT29 colon, 12.5 µM; in the test on NCI-H460 lung it was 4.77 µM. The TGI is 61.4 µM with SR leukemia; 14 µM in the test with MALME-3M melanoma; 5 µM in the test on OVCAR-4 ovarian; 41.2 µM in the test on OVCAR-3 ovarian; above 48.9 µM with KM12 colon.

Take `COc1ccc(-c2cc(-c3ccc(OC)c(OC)c3)nc(SCCCC(=O)NO)n2)cc1`: the GI50 was 1.75 µM in the test with COLO 205 colon; 1.87 µM with HT29 colon; 0.842 µM in the test on NCI-H460 lung; 0.552 µM in the test on SR leukemia; 0.896 µM in the test on MALME-3M melanoma; 2.02 µM in the test on OVCAR-4 ovarian. Also, the GI50 is 1.69 µM in the test on OVCAR-3 ovarian and 2.23 µM in the test with KM12 colon. Further, the TGI with COLO 205 colon is 5.98 µM; in the test with HT29 colon, above 100 µM; in the test on NCI-H460 lung, 5.24 µM; in the test with SR leukemia it was 15.5 µM; with MALME-3M melanoma it was 4.88 µM; with OVCAR-4 ovarian, above 100 µM. Moreover, the concentration for total growth inhibition (TGI) is 5.46 µM in the test with OVCAR-3 ovarian and above 100 µM in the test on KM12 colon.

Take `CCCC(CC)c1cc(O)c(O)cc1C(CC)CCC` (stereo not drawn): the TGI with UACC-257 melanoma, with SK-MEL-28 melanoma, in the test on COLO 205 colon, in the test with A549 NSCLC, in the test on HT29 colon and with NCI-H460 lung was above 10 µM each time. The TGI with SR leukemia, with MALME-3M melanoma, in the test with OVCAR-4 ovarian, in the test with OVCAR-3 ovarian and in the test on KM12 colon was above 10 µM in each case.

Regarding `CC1Cc2c(cc(N)nc2Br)NC1=O` (stereo not drawn), the TGI in the test on UACC-257 melanoma, in the test with SK-MEL-28 melanoma, in the test on COLO 205 colon, in the test with A549 NSCLC, in the test with HT29 colon and in the test on NCI-H460 lung was above 100 µM in each case. Also, the TGI with SR leukemia, with MALME-3M melanoma, with OVCAR-4 ovarian, in the test with OVCAR-3 ovarian and in the test on KM12 colon was above 100 µM throughout.

As for `CCOC(=O)c1c(SCCN2CCCCC2)n(-c2ccccc2)c(=S)n(-c2ccccc2)c1=O`, the TGI was 17.1 µM with UACC-257 melanoma; 24 µM with SK-MEL-28 melanoma; 19.9 µM in the test on COLO 205 colon; above 100 µM with A549 NSCLC; 32.1 µM in the test with HT29 colon; above 100 µM with NCI-H460 lung. The TGI in the test with SR leukemia was above 20.4 µM; in the test with MALME-3M melanoma it was 30.3 µM; in the test on OVCAR-4 ovarian it was 33 µM; in the test with OVCAR-3 ovarian, 24.7 µM; in the test with KM12 colon, 35 µM.

Consider `CCOC(=O)COC1=Nc2cc(OC)c(OC)c3nc(Cl)cc(c23)C1=O`, for which the TGI in the test on UACC-257 melanoma came to 3.21 µM; in the test on SK-MEL-28 melanoma it was 4.01 µM; in the test with COLO 205 colon it was 3.88 µM; in the test on A549 NSCLC, 18.3 µM; in the test on HT29 colon, 6.37 µM; in the test with NCI-H460 lung, 39.3 µM. Also, the concentration for total growth inhibition (TGI) is above 21.5 µM with SR leukemia, 2.71 µM in the test on MALME-3M melanoma, 3.14 µM in the test with OVCAR-4 ovarian and 28.6 µM with KM12 colon.

`O=C1CCc2cc3c(cc21)C(C(=O)O)CC3` (stereo not drawn): the TGI with UACC-257 melanoma, in the test with SK-MEL-28 melanoma, in the test on COLO 205 colon, in the test on A549 NSCLC, in the test on HT29 colon and in the test with NCI-H460 lung was above 100 µM in each case. Also, the TGI in the test with SR leukemia, with MALME-3M melanoma, with OVCAR-4 ovarian and with KM12 colon was above 100 µM in each case.

Turning to `O=c1cnc2cc3ccccc3cc2[nH]1`, the total growth inhibition concentration (TGI) in the test on UACC-257 melanoma, in the test with SK-MEL-28 melanoma, in the test on COLO 205 colon, in the test on A549 NSCLC, with HT29 colon and in the test with NCI-H460 lung was above 100 µM in each case. In addition, the TGI in the test with SR leukemia, in the test with MALME-3M melanoma, in the test on OVCAR-4 ovarian, in the test with OVCAR-3 ovarian and with KM12 colon was above 100 µM throughout.

Consider `COC(C[C@H]1CCCC[C@]1(O)/C(=C\CO[Si](C(C)C)(C(C)C)C(C)C)Sc1ccccc1)OC`, for which the TGI is above 100 µM with UACC-257 melanoma; above 100 µM in the test with SK-MEL-28 melanoma; 47.4 µM with COLO 205 colon; above 100 µM in the test on A549 NSCLC; above 100 µM in the test on HT29 colon; above 100 µM in the test on NCI-H460 lung. The TGI was 46.5 µM with SR leukemia, 86.4 µM in the test on MALME-3M melanoma, above 100 µM in the test with OVCAR-4 ovarian and above 100 µM in the test on KM12 colon.

For `CN(c1ccc(Cl)cc1)S(=O)(=O)c1ccccc1`, the TGI in the test on UACC-257 melanoma, in the test with SK-MEL-28 melanoma, in the test on COLO 205 colon, with A549 NSCLC, with HT29 colon and in the test with NCI-H460 lung was above 100 µM throughout. Besides, the total growth inhibition concentration (TGI) in the test with SR leukemia, in the test on MALME-3M melanoma, with OVCAR-4 ovarian, with OVCAR-3 ovarian and in the test on KM12 colon was above 100 µM each time.

For `COc1ccccc1NC(=O)CSC(N)=O`, the TGI in the test with UACC-257 melanoma, with SK-MEL-28 melanoma, with COLO 205 colon, in the test with A549 NSCLC, with HT29 colon and with NCI-H460 lung was above 100 µM throughout. The concentration for total growth inhibition (TGI) in the test with SR leukemia, in the test with MALME-3M melanoma, in the test on OVCAR-4 ovarian, in the test on OVCAR-3 ovarian and with KM12 colon was above 100 µM throughout.

For `COc1ccc(OC)c(-c2cn3c(n2)sc2ccccc23)c1`, the total growth inhibition concentration (TGI) with UACC-257 melanoma, with COLO 205 colon, in the test on A549 NSCLC, with HT29 colon, in the test on NCI-H460 lung and in the test on SR leukemia was above 100 µM in each case. Further, the TGI in the test with MALME-3M melanoma, with OVCAR-4 ovarian, with OVCAR-3 ovarian and in the test with KM12 colon was above 100 µM each time.

For the molecule `Cc1cn([C@@H]2C[C@](C)(CO)N(C)O2)c(=O)[nH]c1=O`, the TGI in the test on UACC-257 melanoma, in the test on SK-MEL-28 melanoma, in the test on COLO 205 colon, with A549 NSCLC, in the test with HT29 colon and with NCI-H460 lung was above 100 µM each time. Moreover, the TGI with SR leukemia, in the test with MALME-3M melanoma, in the test on OVCAR-4 ovarian and in the test on KM12 colon was above 100 µM each time.

Usually TGI stands for the concentration at which net growth stops. Higher therefore signals lower sensitivity of the cells. The term GI50 denotes the concentration at which growth is held to half of that of the control.

For the origin of these results see PubChem BioAssay (NCI).
